How the values were obtained:
Format in all cases: in vivo
Viola tricolor = assay: Post-emergence herbicidal activity against VIOTR; settings: dosage 320 g/ha, rated about 3 weeks after treatment; for pest or weed control at 320 g/ha: Viola tricolor, 504 h
Procedure, shortened: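 Greenhouse plants in sandy loam treated at one-leaf stage, 2 to 3 weeks after sowing, by spraying WP or EC formulations with 0.5% additive at 600 l/ha water. Activity rated visually after about 3 weeks versus untreated controls, 100% = plants dead, 0% = like control.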

Alopecurus myosuroides = assay: Post-emergence herbicidal activity against ALOMY; settings: dosage 320 g/ha, rated about 3 weeks after treatment; for pest or weed control at 320 g/ha: Alopecurus myosuroides, 504 h
Procedure, shortened: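 Greenhouse-grown plants treated at one-leaf stage, 2 to 3 weeks after sowing, with WP or EC formulations sprayed as aqueous suspension/emulsion plus 0.5% additive at 600 l/ha. Activity rated visually about 3 weeks later versus untreated controls (100% = plants dead, 0% = like control).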

Lolium rigidum = assay: Post-emergence herbicidal activity against LOLRI; settings: dosage 320 g/ha, rated about 3 weeks after treatment; for pest or weed control at 320 g/ha: Lolium rigidum, 504 h
Procedure, shortened: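 Greenhouse-grown plants sprayed post-emergence at the one-leaf stage, 2 to 3 weeks after sowing, with WP or EC formulations plus 0.5% additive at 600 l/ha water. Activity rated visually after about 3 weeks versus untreated controls (100% = plants dead, 0% = like control).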

Echinochloa crus-galli = assay: Post-emergence herbicidal activity against ECHCG; settings: dosage 320 g/ha, rated about 3 weeks after treatment; for pest or weed control at 320 g/ha: Echinochloa crus-galli, 504 h
Procedure, shortened: (§1)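 Greenhouse pot plants sprayed post-emergence at one-leaf stage (2-3 weeks after sowing) with WP or EC formulations, 0.5% additive, 600 l/ha water. Visual rating about 3 weeks later versus untreated controls: 100% = plants dead, 0% = like control.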

Pharbitis purpurea = assay: Pre-emergence herbicidal activity against PHBPU; settings: dosage 80 g/ha; for pest or weed control at 80 g/ha: Ipomoea purpurea, 504 h
Source text: (§2) 1. Pre-Emergence Herbicidal Action and Crop Plant Compatibility Seeds of monocotyledonous and dicotyledonous weed plants and crop plants are placed in plastic or wood fiber pots and covered with soil. The compounds of the invention, formulated in the form of wettable powders (WP) or as emulsion concentrates (EC), are then applied onto the surface of the covering soil as aqueous suspension or emulsion with addition of 0.5% additive at a water application rate of 600 l/ha (converted). After the treatment, the pots are placed in a greenhouse and kept under good growth conditions for the trial plants. After about 3 weeks, the effect of the preparations is scored visually in comparison with untreated controls as percentages. For example, 100% activity=the plants have died, 0% activity=like control plants. LOLRI: Lolium rigidum PHBPU: Pharbitis purpurea

Hordeum murinum = assay: Post-emergence herbicidal activity against HORMU; settings: dosage 320 g/ha; for pest or weed control at 320 g/ha: Hordeum murinum, 504 h
Procedure, shortened: as §1

Avena fatua = assay: Pre-emergence herbicidal activity against AVEFA; settings: dosage 80 g/ha; for pest or weed control at 80 g/ha: Avena fatua, 504 h, read-out: Pre-emergence herbicidal activity against AVEVA in % (AVEFA)
Source text: as §2, with “AMARE: Amaranthus retroflexus AVEFA: Avena fatua” for “LOLRI: Lolium rigidum PHBPU: Pharbitis purpurea”

Amaranthus retroflexus = assay: Pre-emergence herbicidal activity against AMARE; settings: dosage 80 g/ha; for pest or weed control at 80 g/ha: Amaranthus retroflexus, 504 h
Source text: as §2, with “AMARE: Amaranthus retroflexus AVEFA: Avena fatua” for “LOLRI: Lolium rigidum PHBPU: Pharbitis purpurea”

C=C[C@]1(C(=O)N[C@H]2CO[C@@H](C(=O)OC)C2)CC(c2cc(F)cc(F)c2)=NO1 (mixture of isomers) [I-10, methyl cis-4-[[(5S)-3-(3,5-difluorophenyl)-5-vinyl-4H-isoxazole-5-carbonyl]amino]tetrahydrofuran-2-carboxylate]
pest or weed control at 320 g/ha (Viola tricolor): 80%
pest or weed control at 320 g/ha (Alopecurus myosuroides): 100%
pest or weed control at 320 g/ha (Lolium rigidum): 100%
pest or weed control at 320 g/ha (Echinochloa crus-galli): 100%
pest or weed control at 80 g/ha (Pharbitis purpurea): 80%
pest or weed control at 320 g/ha (Hordeum murinum): 100%
pest or weed control at 80 g/ha (Avena fatua): 100%
pest or weed control at 80 g/ha (Amaranthus retroflexus): 90%

C=C[C@]1(C(=O)N[C@H]2CO[C@@H](C(=O)OCC)C2)CC(c2cc(F)cc(F)c2)=NO1 (mixture of isomers) [I-35, ethyl cis-4-[[(5S)-3-(3,5-difluorophenyl)-5-vinyl-4H-isoxazole-5-carbonyl]amino]tetrahydrofuran-2-carboxylate]
pest or weed control at 320 g/ha (Viola tricolor): 80%
pest or weed control at 320 g/ha (Alopecurus myosuroides): 100%
pest or weed control at 320 g/ha (Lolium rigidum): 100%
pest or weed control at 320 g/ha (Echinochloa crus-galli): 100%
pest or weed control at 80 g/ha (Pharbitis purpurea): 90%
pest or weed control at 320 g/ha (Hordeum murinum): 100%
pest or weed control at 80 g/ha (Avena fatua): 100%
pest or weed control at 80 g/ha (Amaranthus retroflexus): 100%

C=C[C@]1(C(=O)N[C@H]2CO[C@@H](C(=O)OC(C)C)C2)CC(c2cc(F)cc(F)c2)=NO1 (mixture of isomers) [I-36, isopropyl cis-4-[[(5S)-3-(3,5-difluorophenyl)-5-vinyl-4H-isoxazole-5-carbonyl]amino]tetrahydrofuran-2-carboxylate]
pest or weed control at 320 g/ha (Viola tricolor): 90%
pest or weed control at 320 g/ha (Alopecurus myosuroides): 90%
pest or weed control at 320 g/ha (Lolium rigidum): 90%
pest or weed control at 320 g/ha (Echinochloa crus-galli): 90%
pest or weed control at 80 g/ha (Pharbitis purpurea): 90%
pest or weed control at 320 g/ha (Hordeum murinum): 90%
pest or weed control at 80 g/ha (Avena fatua): 100%
pest or weed control at 80 g/ha (Amaranthus retroflexus): 100%

C=C[C@]1(C(=O)N[C@H]2CO[C@@H](C(=O)OCc3ccccc3)C2)CC(c2cc(F)cc(F)c2)=NO1 (mixture of isomers) [I-37, benzyl cis-4-[[(5S)-3-(3,5-difluorophenyl)-5-vinyl-4H-isoxazole-5-carbonyl]amino]tetrahydrofuran-2-carboxylate]
pest or weed control at 320 g/ha (Viola tricolor): 80%
pest or weed control at 320 g/ha (Lolium rigidum): 90%
pest or weed control at 320 g/ha (Echinochloa crus-galli): 90%
pest or weed control at 80 g/ha (Pharbitis purpurea): 90%
pest or weed control at 320 g/ha (Hordeum murinum): 80%
pest or weed control at 80 g/ha (Avena fatua): 100%
pest or weed control at 80 g/ha (Amaranthus retroflexus): 100%

C=C[C@]1(C(=O)N[C@H]2CO[C@@H](C(=O)OC(C)(C)C)C2)CC(c2cc(F)cc(F)c2)=NO1 (mixture of isomers) [I-38, tert-butyl cis-4-[[(5S)-3-(3,5-difluorophenyl)-5-vinyl-4H-isoxazole-5-carbonyl]amino]tetrahydrofuran-2-carboxylate]
pest or weed control at 320 g/ha (Viola tricolor): 80%
pest or weed control at 320 g/ha (Alopecurus myosuroides): 90%
pest or weed control at 320 g/ha (Lolium rigidum): 90%
pest or weed control at 320 g/ha (Echinochloa crus-galli): 90%
pest or weed control at 320 g/ha (Hordeum murinum): 90%
pest or weed control at 80 g/ha (Avena fatua): 90%
pest or weed control at 80 g/ha (Amaranthus retroflexus): 100%

CCOC(=O)C1CC(NC(=O)C2(C)CC(c3cc(F)cc(F)c3)=NO2)CO1 (mixture of isomers) [I-43]
Post-emergence herbicidal activity against VIOTR in % (Viola tricolor): 90%
Post-emergence herbicidal activity against ALOMY in % (Alopecurus myosuroides): 100%
Post-emergence herbicidal activity against LOLRI in % (Lolium rigidum): 100%
Post-emergence herbicidal activity against ECHCG in % (Echinochloa crus-galli): 100%
Post-emergence herbicidal activity against HORMU in % (Hordeum murinum): 100%
Pre-emergence herbicidal activity against AVEVA in % (AVEFA) (Avena fatua): 100%
Pre-emergence herbicidal activity against AMARE in % (Amaranthus retroflexus): 90%

COC(=O)[C@H]1C[C@@H](NC(=O)C2(C(F)(F)F)CC(c3cc(F)cc(F)c3)=NO2)CO1 (relative stereo) [I-06, methyl cis-4-[[3-(3,5-difluorophenyl)-5-(trifluoromethyl)-4H-isoxazole-5-carbonyl]amino]tetrahydrofuran-2-carboxylate]
pest or weed control at 320 g/ha (Viola tricolor): 90%
pest or weed control at 320 g/ha (Alopecurus myosuroides): 90%
pest or weed control at 320 g/ha (Echinochloa crus-galli): 90%
pest or weed control at 80 g/ha (Pharbitis purpurea): 80%
pest or weed control at 80 g/ha (Avena fatua): 90%

C=CC1(C(=O)N[C@H]2CO[C@@H](C(=O)O)C2)CC(c2cc(F)cc(F)c2)=NO1 (relative stereo) [I-21, cis-4-[[3-(3,5-difluorophenyl)-5-vinyl-4H-isoxazole-5-carbonyl]amino]tetrahydrofuran-2-carboxylic acid]
pest or weed control at 320 g/ha (Viola tricolor): 80%
pest or weed control at 320 g/ha (Alopecurus myosuroides): 90%
pest or weed control at 320 g/ha (Echinochloa crus-galli): 80%
pest or weed control at 80 g/ha (Pharbitis purpurea): 80%
pest or weed control at 80 g/ha (Avena fatua): 90%
pest or weed control at 80 g/ha (Amaranthus retroflexus): 100%

C=C[C@]1(C(=O)N[C@H]2CO[C@@H](C(=O)OC)C2)CC(c2cc(F)cc(F)c2)=NO1 (single isomer, unassigned) [I-12]
Post-emergence herbicidal activity against VIOTR in % (Viola tricolor): 100%
Post-emergence herbicidal activity against ALOMY in % (Alopecurus myosuroides): 90%
Post-emergence herbicidal activity against LOLRI in % (Lolium rigidum): 100%
Post-emergence herbicidal activity against ECHCG in % (Echinochloa crus-galli): 90%
Post-emergence herbicidal activity against HORMU in % (Hordeum murinum): 90%
pest or weed control at 80 g/ha (Avena fatua): 100%
pest or weed control at 80 g/ha (Amaranthus retroflexus): 100%

C=CC1(C(=O)NC2=C(C(=O)OCC)COC2)CC(c2cc(F)cc(F)c2)=NO1 (centres unmarked) [I-23, ethyl 4-[[3-(3,5-difluorophenyl)-5-vinyl-4H-isoxazole-5-carbonyl]amino]-2,5-dihydrofuran-3-carboxylate]
pest or weed control at 320 g/ha (Alopecurus myosuroides): 100%
pest or weed control at 320 g/ha (Lolium rigidum): 90%
pest or weed control at 320 g/ha (Echinochloa crus-galli): 90%
pest or weed control at 320 g/ha (Hordeum murinum): 100%
pest or weed control at 80 g/ha (Avena fatua): 90%
pest or weed control at 80 g/ha (Amaranthus retroflexus): 80%

C=C[C@]1(C(=O)NC2COCC2C(=O)OC)CC(c2cc(F)cc(F)c2)=NO1 (stereo partly drawn) [I-26, methyl 4-[[(5S)-3-(3,5-difluorophenyl)-5-vinyl-4H-isoxazole-5-carbonyl]amino]tetrahydrofuran-3-carboxylate]
pest or weed control at 320 g/ha (Viola tricolor): 80%
pest or weed control at 320 g/ha (Alopecurus myosuroides): 90%
pest or weed control at 320 g/ha (Echinochloa crus-galli): 90%
pest or weed control at 80 g/ha (Pharbitis purpurea): 90%
pest or weed control at 80 g/ha (Avena fatua): 90%
pest or weed control at 80 g/ha (Amaranthus retroflexus): 100%

COC(=O)C1COCC1NC(=O)[C@@]1(C)CC(c2cc(F)cc(F)c2)=NO1 (stereo partly drawn) [I-28, methyl 4-[[(5R)-3-(3,5-difluorophenyl)-5-methyl-4H-isoxazole-5-carbonyl]amino]tetrahydrofuran-3-carboxylate]
pest or weed control at 320 g/ha (Viola tricolor): 80%
pest or weed control at 320 g/ha (Alopecurus myosuroides): 90%
pest or weed control at 320 g/ha (Echinochloa crus-galli): 80%
pest or weed control at 80 g/ha (Pharbitis purpurea): 90%
pest or weed control at 80 g/ha (Avena fatua): 100%
pest or weed control at 80 g/ha (Amaranthus retroflexus): 90%

COC(=O)C1=C[C@@H](NC(=O)C2(C)CC(c3cccc(F)c3)=NO2)CO1 (stereo partly drawn) [I-46, methyl (3R)-3-[[3-(3-fluorophenyl)-5-methyl-4H-isoxazole-5-carbonyl]amino]-2,3-dihydrofuran-5-carboxylate]
pest or weed control at 320 g/ha (Viola tricolor): 90%
pest or weed control at 320 g/ha (Alopecurus myosuroides): 100%
pest or weed control at 320 g/ha (Lolium rigidum): 100%
pest or weed control at 320 g/ha (Echinochloa crus-galli): 100%
pest or weed control at 320 g/ha (Hordeum murinum): 100%
pest or weed control at 80 g/ha (Avena fatua): 80%
pest or weed control at 80 g/ha (Amaranthus retroflexus): 90%

COC(=O)C1CC(NC(=O)C2(C(C)(F)F)CC(c3cc(F)cc(F)c3)=NO2)CO1 (centres unmarked) [I-49]
Post-emergence herbicidal activity against VIOTR in % (Viola tricolor): 80%
Post-emergence herbicidal activity against ALOMY in % (Alopecurus myosuroides): 90%
Post-emergence herbicidal activity against LOLRI in % (Lolium rigidum): 90%
Post-emergence herbicidal activity against ECHCG in % (Echinochloa crus-galli): 80%
Pre-emergence herbicidal activity against PHBPU in % (Pharbitis purpurea): 90%
Pre-emergence herbicidal activity against AVEVA in % (AVEFA) (Avena fatua): 100%
Pre-emergence herbicidal activity against AMARE in % (Amaranthus retroflexus): 100%
